Here are results for 4 compounds from patent US20150296788A1, “PESTICIDALLY ACTIVE TRICYCLIC PYRIDYL DERIVATIVES” (SYNGENTA PARTICIPATIONS AG, priority 2012, published 2015).

Common to all, as to type: in vivo
In assay [1] the test system is Myzus persicae (Green Peach Aphid). The experiment in a line: Activity against Myzus persicae (green peach aphid), leaf disc, feeding/residual contact, preventive. The note with it: foliar, 144 h, sunflower leaf discs sprayed, mixed-age aphid population, 6 days incubation. How it is done: Activity Against Myzus persicae (Green Peach Aphid)
(Mixed Population, Feeding/Residual Contact Activity, Preventive)
Sunflower leaf discs were placed on agar in a 24-well microtiter plate and sprayed with test solutions. After drying, the leaf discs were infested with an aphid population of mixed ages. After an incubation period of 6 days, samples were checked for mortality.

Assay [2] relates to Bemisia tabaci (Cotton White Fly). The experiment in a line: Activity against Bemisia tabaci (cotton white fly), leaf disc, feeding/residual contact, preventive. The note with it: foliar, 144 h, cotton leaf discs sprayed, 12 to 18 adults, 6 days after infestation. How it is done:
Activity Against Bemisia tabaci (Cotton White Fly)
(Feeding/Residual Contact Activity, Preventive)
Cotton leaf discs were placed on agar in a 24-well microtiter plate and sprayed with test solutions. After drying, the leaf discs were infested with 12 to 18 adults. After an incubation period of 6 days after infestation, samples were checked for mortality and special effects (e.g. phytotoxicity).

The subject of assay [3] is Frankliniella occidentalis (Western Flower Thrips). As to the kind of experiment: Activity against Frankliniella occidentalis (western flower thrips), leaf disc, feeding/residual contact, preventative. Particulars: foliar, 168 h, sunflower leaf discs sprayed, mixed-age population, 7 DAT. The method, then: Activity Against Frankliniella occidentalis (Western Flower Thrips)
(Mixed Population, Feeding/Residual Contact Activity, Preventative)
Sunflower leaf discs are placed on agar in a 24-well microtiter plate and sprayed with test solutions. After drying, the leaf discs are infested with a Frankliniella population of mixed ages. After an incubation period of 7 DAT, samples are checked for mortality and special effects (e.g. phytotoxicity).

The structures appear in SMILES notation.

Broadly, the mortality is the percentage killed. A high value points to fewer survivors. In the case of `c1cncc(-n2cc(-c3ccc4c(n3)-c3ncncc3CC4)cn2)c1` [Compound 1.001, 9-[1-(3-pyridyl)pyrazol-4-yl]-5,6-dihydropyrido[3,2-h]quinazoline], the mortality at 200 ppm in assay [1] and in assay [2] was greater than 80% in each case.

With `c1cncc(-n2cc(-c3ccc4c(n3)-c3n[nH]cc3CC4)cn2)c1` [Compound 1.002, 8-[1-(3-pyridyl)pyrazol-4-yl]-4,5-dihydro-2H-pyrazolo[4,3h]quinoline], the mortality at 200 ppm in assay [1] and in assay [2] was greater than 80% in each case.

Take `CN1c2ccc(-c3cnn(-c4cccnc4)c3)nc2-c2ncncc2S1(=O)=O` [Compound 1.003, 9-methyl-6-(1-pyridin-3-yl-1H-pyrazol-4-yl)-9H-10-thia-2,4,5,9-tetraaza-phenanthrene 10,10-dioxide]: the mortality at 200 ppm in assay [1] and in assay [3] was greater than 80% each time.

As for `CN1c2ccc(-c3cnn(-c4cccnc4)c3)nc2-c2[nH]ncc2S1(=O)=O` [Compound 1.004, 5-methyl-8-(1-pyridin-3-yl-1H-pyrazol-4-yl)-1,5-dihydro-4-thia-1,2,5,9-tetraaza-cyclopenta[a]naphthalene 4,4-dioxide], the mortality at 200 ppm in assay [1], in assay [2] and in assay [3] was greater than 80% each time.
